This note sets out measurements from US9556165B2 (priority 2012, dated 2017).

SMILES strings stand for the structures. Converted amounts (≈) assume the structure as drawn. Read-outs that look alike come from different tables or passages of the source.

What all share (format): cell-based
In one test the test system is B. fragilis 6688. As to the kind of experiment: MIC determination, broth microdilution (CLSI). The conditions noted are these: Bacteroides fragilis, 6688, strain 15; broth microdilution; read-out: MIC strain 15 (B. fragilis 6688).
Another test deals with C. perfringens DSM756. As to the kind of experiment: microbe, parasite or virus in culture. The note with it: Clostridium perfringens, DSM756, read-out: MIC strain 16 (C. perfringens DSM756), strain 16; broth microdilution.
The next test deals with E. coli J62. The test can be described thus: MIC determination, broth microdilution (CLSI). The conditions noted are these: Escherichia coli, J62, strain 17; broth microdilution; read-out: MIC strain 17 (E. coli J62).
The test system of another test is E. cloacae 34654. As to the kind of experiment: MIC determination, broth microdilution (CLSI). The note with it: Enterobacter cloacae, 34654, strain 3.
For another test, the system named is C. freundii K21/3034. As to the kind of experiment: MIC determination, broth microdilution (CLSI). The note with it: Citrobacter freundii, K21/3034, strain 4.
Test [1] has as its system P. aeruginosa 2297 (AmpC wt). The test can be described thus: MIC determination, broth microdilution (CLSI). The note with it: Pseudomonas aeruginosa, strain 7.
The next test relates to H. influenzae ATCC 49247. As to the kind of experiment: MIC determination, broth microdilution (CLSI). The note with it: Haemophilus influenzae, ATCC49247, strain 12; broth microdilution; read-out: MIC strain 12 (H. influenzae ATCC 49247).
Another test concerns P. aeruginosa PAO1. As to the kind of experiment: MIC determination, broth microdilution (CLSI). The note with it: Pseudomonas aeruginosa, PAO1, strain 6.
For the next test, the system named is M. morganii 126/3048. As to the kind of experiment: MIC determination, broth microdilution (CLSI). The conditions noted are these: Morganella morganii, 126/3048, strain 5.
In a further test the test system is S. pneumoniae 113. As to the kind of experiment: MIC determination, broth microdilution (CLSI). The note with it: Streptococcus pneumoniae, 113, strain 13; broth microdilution; read-out: MIC strain 13 (S. pneumoniae 113).
Another test has as its system A. baumannii ATCC15308. The test can be described thus: MIC determination, broth microdilution (CLSI). The conditions noted are these: Acinetobacter baumannii, ATCC15308, strain 9.
For a further test, the system named is E. coli ATCC25922. The test can be described thus: MIC determination, broth microdilution (CLSI). The conditions noted are these: Escherichia coli, ATCC25922, strain 1.
The subject of another test is S. aureus 133. As to the kind of experiment: MIC determination, broth microdilution (CLSI).
For another test, the system named is S. maltophilia ICB7569. As to the kind of experiment: MIC determination, broth microdilution (CLSI). The note with it: Stenotrophomonas maltophilia, ICB7569, strain 10.
A further test relates to E. coli J62-TEM-3. As to the kind of experiment: MIC determination, broth microdilution (CLSI). The note with it: Escherichia coli, J62TEM3, read-out: MIC strain 18 (E. coli J62-TEM-3), strain 18; broth microdilution.
In test [2] the test system is P. aeruginosa 2297-con (AmpC derepressed). The test can be described thus: MIC determination, broth microdilution (CLSI). The conditions noted are these: Pseudomonas aeruginosa, read-out: strain 8 MIC, strain 8.
The next test relates to Bacteria. The test can be described thus: MIC determination in combination with β-lactamase inhibitors (constant 4 μg/mL).
A further test deals with K. pneumoniae 60. The test can be described thus: MIC determination, broth microdilution (CLSI). The conditions noted are these: Klebsiella pneumoniae, 60, strain 2.
Where [3] appears, read: Staphylococcus aureus, 133, strain 11, read-out: strain 11 MIC.
[4] abbreviates: Staphylococcus aureus, 133, strain 14, broth microdilution, read-out: MIC strain 14 (S. aureus 133).

As for `CN(C)C(=O)[C@@H]1C[C@H](NC(=N)c2ccc(OCCO/N=C(\C(=O)N[C@@H]3C(=O)N(OS(=O)(=O)O)C3(C)C)c3csc(N)n3)cc2)CN1` [Example 42, (4S)-4-{[{4-[2-({[(1Z)-1-(2-Amino-1,3-thiazol-4-yl)-2-{[(3S)-2,2-dimethyl-4-oxo-1-(sulfooxy)azetidin-3-yl]amino}-2-oxoethylidene]amino}oxy)ethoxy]phenyl}(imino)methyl]amino}-N,N-dimethyl-L-prolinamide], the MIC was found to be 8 µg/mL (≈ 11.7 µM) with B. fragilis 6688; 4 µg/mL (≈ 5.87 µM) with C. perfringens DSM756; 1 µg/mL (≈ 1.47 µM) with E. coli J62; 2 µg/mL (≈ 2.93 µM) against E. cloacae 34654; 1 µg/mL (≈ 1.47 µM) in the test on C. freundii K21/3034; 16 µg/mL (≈ 23.5 µM) in [1]. Also, the MIC is 0.25 µg/mL (≈ 0.367 µM) with H. influenzae ATCC 49247; 16 µg/mL (≈ 23.5 µM) with P. aeruginosa PAO1; 2 µg/mL (≈ 2.93 µM) in the test on M. morganii 126/3048; 0.125 µg/mL (≈ 0.183 µM) with S. pneumoniae 113; 8 µg/mL (≈ 11.7 µM) in the test with A. baumannii ATCC15308; 1 µg/mL (≈ 1.47 µM) against E. coli ATCC25922. For the same compound, the MIC with S. aureus 133 (setting [3]) is no more than 0.063 µg/mL; with S. aureus 133 (setting [4]) it was 16 µg/mL (≈ 23.5 µM); in the test with S. maltophilia ICB7569 it was 16 µg/mL (≈ 23.5 µM); in the test with E. coli J62-TEM-3, 16 µg/mL (≈ 23.5 µM); in [2], 16 µg/mL (≈ 23.5 µM); against K. pneumoniae 60, 1 µg/mL (≈ 1.47 µM). Besides, the “MIC strain 19 (E. coli J62-TEM-3 + 4 μg/mL clavulanic acid)” value in the test on Bacteria is 1 µg/mL. The “MIC strain 20 (E. coli J62-TEM-3 + 4 μg/mL sulbactam)” value in the test on Bacteria was determined as 1 µg/mL. Moreover, the “MIC strain 21 (E. coli J62-TEM-3 + 4 μg/mL tazobactam)” value in the test with Bacteria amounted to 1 µg/mL.
As for `CC(C)(N)CNC(=N)c1ccc(OC[C@H](O/N=C(\C(=O)N[C@@H]2C(=O)N(OS(=O)(=O)O)C2(C)C)c2csc(N)n2)C(=O)O)cc1` [Example 94, (2S)-3-{4-[N-(2-Amino-2-methylpropyl)carbamimidoyl]phenoxy}-2-({[(1Z)-1-(2-amino-1,3-thiazol-4-yl)-2-{[(3S)-2,2-dimethyl-4-oxo-1-(sulfooxy)azetidin-3-yl]amino}-2-oxoethylidene]amino}oxy)propanoic acid], the MIC in the test with B. fragilis 6688 is 8 µg/mL (≈ 12.2 µM); in the test with C. perfringens DSM756, 0.5 µg/mL (≈ 0.761 µM); with E. coli J62, 0.25 µg/mL (≈ 0.381 µM); in the test on E. cloacae 34654, 0.125 µg/mL (≈ 0.19 µM); against C. freundii K21/3034 it was 0.125 µg/mL (≈ 0.19 µM); in test [1], 2 µg/mL (≈ 3.05 µM). Further, the MIC with H. influenzae ATCC 49247 is no more than 0.063 µg/mL; against P. aeruginosa PAO1, 2 µg/mL (≈ 3.05 µM); in the test on M. morganii 126/3048 it was 0.125 µg/mL (≈ 0.19 µM); with S. pneumoniae 113, 0.5 µg/mL (≈ 0.761 µM); against A. baumannii ATCC15308, 2 µg/mL (≈ 3.05 µM); with E. coli ATCC25922, 0.125 µg/mL (≈ 0.19 µM). Further, the MIC in the test on S. aureus 133 (setting [3]) was no more than 0.063 µg/mL; in the test with S. aureus 133 (setting [4]) it was 32 µg/mL (≈ 48.7 µM); against S. maltophilia ICB7569, 4 µg/mL (≈ 6.09 µM); with E. coli J62-TEM-3 it was 8 µg/mL (≈ 12.2 µM); in [2], 2 µg/mL (≈ 3.05 µM); in the test with K. pneumoniae 60, 0.125 µg/mL (≈ 0.19 µM). Further, in the test on Bacteria, the “MIC strain 19 (E. coli J62-TEM-3 + 4 μg/mL clavulanic acid)” value is 0.125 µg/mL. For the same compound, the “MIC strain 20 (E. coli J62-TEM-3 + 4 μg/mL sulbactam)” value in the test with Bacteria is recorded as “≦0.063 mg/L”. In addition, the “MIC strain 21 (E. coli J62-TEM-3 + 4 μg/mL tazobactam)” value in the test with Bacteria amounted to 0.125 µg/mL.
With `CC1(C)[C@H](NC(=O)/C(=N\O[C@@H](COc2ccc(C(=N)NCCNc3ncccn3)cc2)C(=O)O)c2csc(N)n2)C(=O)N1OS(=O)(=O)O` [Example 110, (2S)-2-({[(1Z)-1-(2-Amino-1,3-thiazol-4-yl)-2-{[(3S)-2,2-dimethyl-4-oxo-1-(sulfooxy)azetidin-3-yl]amino}-2-oxoethylidene]amino}oxy)-3-(4-{N-[2-(pyrimidin-2-ylami-no)ethyl]carbamimidoyl}phenoxy)propanoic acid], the MIC in the test with B. fragilis 6688 came to 16 µg/mL (≈ 22.6 µM); with C. perfringens DSM756, 8 µg/mL (≈ 11.3 µM); in the test on E. coli J62, 1 µg/mL (≈ 1.41 µM); in the test with E. cloacae 34654, 1 µg/mL (≈ 1.41 µM); against C. freundii K21/3034 it was 0.5 µg/mL (≈ 0.707 µM); in [1], 8 µg/mL (≈ 11.3 µM). The MIC in the test with H. influenzae ATCC 49247 is no more than 0.063 µg/mL; in the test on P. aeruginosa PAO1, 8 µg/mL (≈ 11.3 µM); against M. morganii 126/3048 it was 0.25 µg/mL (≈ 0.354 µM); with S. pneumoniae 113, 0.25 µg/mL (≈ 0.354 µM); in the test on A. baumannii ATCC15308, 32 µg/mL (≈ 45.3 µM); with E. coli ATCC25922 it was 0.5 µg/mL (≈ 0.707 µM). The MIC is no more than 0.063 µg/mL with S. aureus 133 (setting [3]); 8 µg/mL (≈ 11.3 µM) with S. maltophilia ICB7569; 32 µg/mL (≈ 45.3 µM) in the test on E. coli J62-TEM-3; 16 µg/mL (≈ 22.6 µM) in [2]; 1 µg/mL (≈ 1.41 µM) against K. pneumoniae 60. Besides, the “MIC strain 19 (E. coli J62-TEM-3 + 4 μg/mL clavulanic acid)” value with Bacteria was determined as 0.5 µg/mL. For the same compound, the “MIC strain 20 (E. coli J62-TEM-3 + 4 μg/mL sulbactam)” value in the test on Bacteria was 0.5 µg/mL. Moreover, in the test with Bacteria, the “MIC strain 21 (E. coli J62-TEM-3 + 4 μg/mL tazobactam)” value worked out at 0.5 µg/mL.
